According to ChEMBL document CHEMBL1201862, “PubChem BioAssay data set” (2004):
The source made the active and inactive calls.

Experiments:
[1] = blockers of bursicon-stimulated LGR2 cAMP reporter – cell-based, HEK293, CRE-luciferase reporter, cherry pick, set 2, dose response (AID 743343); type: functional;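 further: transfected cells were stimulated with diluted bursicon conditioned medium after compound addition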
[2] = blockade of melanocortin 4 receptor signaling – cell-based, plate reader, cherry pick, counter-screen for LGR2 antagonist project, dose response (AID 743444); type: functional;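 further: transfected HEK 293 cells stimulated with alpha-MSH peptide; potency of inhibitors of the alpha-MSH evoked signal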
[3] = viability loss in HEK293 cells – cell-based, plate reader, cherry-picked samples, cytotoxicity control, dose response (AID 743446); type: functional
[4] = molecular target: Paired box protein Pax-8 (Homo sapiens, UniProt Q06710); assay: PAX8 transcriptional activity inhibition in RMG-I – RMG-I cells, luciferase, cherry-pick, dose response (AID 687027); type: functional, cell-based;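 further: luciferase reporter driven by Pax8 target thyroperoxidase promoter measured by SteadyGlo luminescence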
[5] = A2780 cell killing – plate reader, dry powder samples, cytotoxicity control, dose response (AID 743046); type: functional, cell-based
[6] = OVCAR8 cell viability loss – plate reader, dry powder samples, PAX8 project, dose response (AID 743197); type: functional, cell-based; settings: OVCAR-8
[7] = molecular target: T1, Protein Tat (Human immunodeficiency virus type 1 group M subtype B (isolate HXB2)(HIV-1), UniProt P04608); type: functional;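 further: tat binding to TAR RNA read out by fluorescence polarization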
T1 sequence (P04608 whole entry): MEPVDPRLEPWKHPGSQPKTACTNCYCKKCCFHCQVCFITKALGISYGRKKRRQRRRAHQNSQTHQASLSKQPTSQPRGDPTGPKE

[8] = HIV-1 Vif–A3G interaction blockers – biochemical, TR-FRET, GST-Vif 1-94, biotin-A3G peptide, dose response retest, primary screen (AID 1117319); type: functional;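 further: TR-FRET signal of purified GST-Vif binding a biotinylated A3G peptide; inhibitors lower the FRET signal by blocking Vif and A3G binding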
[9] = molecular target: Kallikrein-7 (Homo sapiens, UniProt P49862); assay: Fluorescence Intensity-based biochemical primary high throughput dose response assay to identify activators of kallikrein-7 (K7) zymogen.
[10] = molecular target: FAD-linked sulfhydryl oxidase ALR (Homo sapiens, UniProt P55789); assay: ALR-catalysed DTT oxidation blockers – biochemical, H2O2 detection, luminescence, cherry-pick, dose response (AID 493248)
[11] = molecular target: T2, Epstein-Barr nuclear antigen 1 (Epstein-Barr virus (strain B95-8) (HHV-4) (Human herpesvirus 4), UniProt P03211); assay: inhibition of EBV nuclear antigen 1 DNA binding – biochemical, fluorescence polarization, 1536-well, dose response (AID 2381); parameters: species or system human gammaherpesvirus 4;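 further: fluorescence polarization of a Cy5 DNA probe bound by EBNA-1 protein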
T2 sequence (P03211 whole entry): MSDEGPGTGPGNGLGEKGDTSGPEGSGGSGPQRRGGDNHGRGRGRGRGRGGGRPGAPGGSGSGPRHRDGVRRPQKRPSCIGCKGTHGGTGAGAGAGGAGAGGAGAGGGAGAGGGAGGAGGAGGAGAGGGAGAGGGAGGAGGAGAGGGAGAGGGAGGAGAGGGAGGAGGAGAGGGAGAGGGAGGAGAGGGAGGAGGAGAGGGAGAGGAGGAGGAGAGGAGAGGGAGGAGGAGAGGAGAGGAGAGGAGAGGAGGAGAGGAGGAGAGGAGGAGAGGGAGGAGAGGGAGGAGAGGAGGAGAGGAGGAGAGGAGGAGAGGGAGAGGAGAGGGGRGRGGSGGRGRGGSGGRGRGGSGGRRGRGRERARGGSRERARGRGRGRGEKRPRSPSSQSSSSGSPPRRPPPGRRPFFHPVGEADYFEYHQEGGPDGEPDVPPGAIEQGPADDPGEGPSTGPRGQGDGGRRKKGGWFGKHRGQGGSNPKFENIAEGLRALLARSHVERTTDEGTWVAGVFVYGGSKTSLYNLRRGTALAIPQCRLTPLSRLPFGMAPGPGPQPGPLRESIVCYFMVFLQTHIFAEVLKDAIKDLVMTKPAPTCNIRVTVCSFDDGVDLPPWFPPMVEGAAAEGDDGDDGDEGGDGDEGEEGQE

[12] = molecular target: T3, Lytic switch protein BZLF1 (Epstein-Barr virus (strain B95-8) (HHV-4) (Human herpesvirus 4), UniProt P03206); assay: inhibition of BZLF1 ZTA DNA binding – biochemical, fluorescence polarization, Epstein-Barr virus, 1536-well, counter-screen for EBNA-1 inhibitor project, dose response (AID 2377); parameters: species or system human gammaherpesvirus 4;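 further: fluorescence polarization of Cy5-labelled ZRE DNA probe bound by purified Zta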
T3 sequence (P03206 whole entry): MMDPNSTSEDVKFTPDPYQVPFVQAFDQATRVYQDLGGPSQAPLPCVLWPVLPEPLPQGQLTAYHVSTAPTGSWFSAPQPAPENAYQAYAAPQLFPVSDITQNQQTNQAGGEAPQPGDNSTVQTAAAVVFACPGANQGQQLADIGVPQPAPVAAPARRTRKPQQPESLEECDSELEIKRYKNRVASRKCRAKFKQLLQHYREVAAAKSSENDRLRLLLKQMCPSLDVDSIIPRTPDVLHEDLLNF

Chain of Paired box protein Pax-8 (Q06710 whole entry): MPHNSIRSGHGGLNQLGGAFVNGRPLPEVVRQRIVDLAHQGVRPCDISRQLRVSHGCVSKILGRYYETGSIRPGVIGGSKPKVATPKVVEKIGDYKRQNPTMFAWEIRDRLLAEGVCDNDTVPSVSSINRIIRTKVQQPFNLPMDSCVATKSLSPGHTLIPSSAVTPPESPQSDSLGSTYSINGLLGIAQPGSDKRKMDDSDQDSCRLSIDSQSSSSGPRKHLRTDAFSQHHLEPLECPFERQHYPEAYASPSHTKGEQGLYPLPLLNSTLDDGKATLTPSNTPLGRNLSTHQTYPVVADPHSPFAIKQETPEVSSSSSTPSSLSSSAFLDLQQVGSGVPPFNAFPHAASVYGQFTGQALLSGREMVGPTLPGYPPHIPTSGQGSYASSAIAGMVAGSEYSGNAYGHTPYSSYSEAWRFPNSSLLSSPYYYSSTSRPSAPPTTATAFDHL
Chain of Kallikrein-7 (P49862 whole entry): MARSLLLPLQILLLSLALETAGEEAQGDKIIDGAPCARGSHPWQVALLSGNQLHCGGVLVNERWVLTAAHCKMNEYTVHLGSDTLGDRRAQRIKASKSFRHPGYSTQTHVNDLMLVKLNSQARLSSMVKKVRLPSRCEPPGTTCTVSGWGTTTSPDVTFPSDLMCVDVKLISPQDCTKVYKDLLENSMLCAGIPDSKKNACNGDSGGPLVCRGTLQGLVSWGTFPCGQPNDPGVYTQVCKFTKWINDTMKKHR
Chain of FAD-linked sulfhydryl oxidase ALR (P55789 whole entry): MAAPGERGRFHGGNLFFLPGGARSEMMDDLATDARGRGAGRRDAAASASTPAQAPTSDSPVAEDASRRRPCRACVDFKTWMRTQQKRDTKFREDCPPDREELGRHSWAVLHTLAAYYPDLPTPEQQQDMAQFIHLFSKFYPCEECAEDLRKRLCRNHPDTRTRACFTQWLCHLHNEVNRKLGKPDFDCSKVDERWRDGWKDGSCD

With `Cc1ccc(-c2nc(-c3ccccn3)no2)cc1[N+](=O)[O-]` the AC50 [1] was 4.31 µM (active), the AC50 [2] was 14.9 µM (active) and the AC50 [3] was > 52 µM (inactive).

For `CN1C(=O)c2cc(NC(=O)c3cccc(Cl)c3)ccc2OC[C@@H]2O[C@H](CC(=O)NC3CCCCC3)CC[C@@H]21`, the AC50 [4] was 7.9 µM (active), the AC50 [5] was 1.19 µM (active) and the AC50 [6] was 51.9 µM (active).

For `Cc1ccc(-n2c(C)cc(C(=O)OCC(=O)N(CC(C)C)C3CCS(=O)(=O)C3)c2C)cc1` (centres undefined), the IC50 [7] was > 100 µM (active) and the IC50 [8] was > 100 µM (active).

In the case of `COc1ccc(C(=O)OCC(=O)c2c(N)n(C)c(=O)n(C)c2=O)cc1OC`, the IC50 [8] is reported as > 100 µM (active).

In the case of `CCOCCCn1/c(=N\C(=O)c2ccco2)c(C(=O)OCC)cc2c(=O)n3cccc(C)c3nc21`, the EC50 [9] is reported as 38.7 µM (inactive).

In the case of `COc1ccc(S(=O)(=O)Cc2ccc(C(=O)N3CCN(c4ccccc4)CC3)o2)cc1`, the AC50 [10] is reported as 19.1 µM (active), the IC50 [7] is reported as > 100 µM (active) and the IC50 [8] is reported as > 100 µM (active).

For `CCc1nnc(NC(=O)CSc2ccc(-c3nc4ccccc4[nH]3)cn2)s1`, the IC50 [11] was 17.1 µM (not active) and the IC50 [12] was > 111 µM (not active).

In the case of `CSc1ccccc1NC(=O)Cn1nnc(-c2ccc(S(C)(=O)=O)cc2)n1`, the IC50 [11] is reported as 6.17 µM (active) and the IC50 [12] is reported as > 111 µM (not active).

For `COc1ccc(Cc2nnc(NC(=O)Nc3ccccc3F)s2)cc1OC`, the IC50 [11] was 6.66 µM (active) and the IC50 [12] was > 111 µM (not active).
